Our source for the Ki values is BindingDB's records for PubMed 8100350 (University of Pennsylvania, 1993).

Test [1] concerns the target Somatostatin receptor type 2 (Mus musculus, UniProt P30875).
The target in test [2] is Somatostatin receptor type 1 (Homo sapiens, UniProt P30872).
For test [3], the target named is Somatostatin receptor type 3 (Mus musculus, UniProt P30935).

Each structure is given as a SMILES string. Where a SMILES comes first, the peptide text is derived from it. Bridges are numbered along the chain shown (N, C = ends). [ ]: non-standard residue; d: D form. The star is where a group is joined. NH(1-naphthylmethyl) = c1ccc2c(CN*)cccc2c1; d1Nal = N[C@H](Cc1cccc2ccccc12)C(=O)O; d2Nal = N[C@H](Cc1ccc2ccccc2c1)C(=O)O; Aoc = NCCCCCCCC(=O)O; Ahp = NCCCCCCC(=O)O; Bn = c1ccc(C*)cc1

Chain of Somatostatin receptor type 1 (P30872 whole entry): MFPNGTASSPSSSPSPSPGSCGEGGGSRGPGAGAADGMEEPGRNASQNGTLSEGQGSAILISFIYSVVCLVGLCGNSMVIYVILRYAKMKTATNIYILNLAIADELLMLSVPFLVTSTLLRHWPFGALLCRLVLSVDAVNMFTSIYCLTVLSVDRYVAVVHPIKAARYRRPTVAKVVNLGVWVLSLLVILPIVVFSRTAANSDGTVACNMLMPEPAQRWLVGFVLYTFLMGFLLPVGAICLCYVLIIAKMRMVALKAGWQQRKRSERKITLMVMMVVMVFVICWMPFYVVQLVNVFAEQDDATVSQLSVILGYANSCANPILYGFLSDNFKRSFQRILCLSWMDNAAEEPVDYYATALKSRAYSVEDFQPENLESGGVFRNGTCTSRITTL
Chain of Somatostatin receptor type 2 (P30875 whole entry): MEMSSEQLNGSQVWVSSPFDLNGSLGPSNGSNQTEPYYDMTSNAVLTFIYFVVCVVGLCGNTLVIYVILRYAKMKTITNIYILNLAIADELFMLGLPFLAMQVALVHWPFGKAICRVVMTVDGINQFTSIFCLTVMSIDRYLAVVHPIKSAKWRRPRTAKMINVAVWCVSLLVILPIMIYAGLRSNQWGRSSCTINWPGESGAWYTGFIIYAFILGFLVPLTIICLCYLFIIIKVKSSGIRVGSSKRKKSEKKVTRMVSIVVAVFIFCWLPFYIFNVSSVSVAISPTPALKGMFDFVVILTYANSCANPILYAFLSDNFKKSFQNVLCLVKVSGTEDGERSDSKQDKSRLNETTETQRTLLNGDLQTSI
Chain of Somatostatin receptor type 3 (P30935 whole entry): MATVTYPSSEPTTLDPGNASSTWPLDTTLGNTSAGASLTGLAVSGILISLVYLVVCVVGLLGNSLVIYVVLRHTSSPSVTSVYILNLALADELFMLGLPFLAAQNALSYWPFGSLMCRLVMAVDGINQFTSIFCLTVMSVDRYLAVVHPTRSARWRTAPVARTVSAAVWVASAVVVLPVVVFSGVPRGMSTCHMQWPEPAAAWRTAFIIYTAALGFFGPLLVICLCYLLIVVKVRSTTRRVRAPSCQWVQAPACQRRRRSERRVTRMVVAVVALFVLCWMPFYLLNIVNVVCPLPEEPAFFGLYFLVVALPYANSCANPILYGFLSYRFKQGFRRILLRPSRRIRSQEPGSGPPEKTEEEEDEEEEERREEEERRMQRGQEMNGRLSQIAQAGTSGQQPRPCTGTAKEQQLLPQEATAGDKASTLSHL

Consider `CC(C)[C@H](NC(=O)[C@H](CCCCN)NC(=O)[C@@H](Cc1c[nH]c2ccccc12)NC(=O)[C@H](Cc1ccc(O)cc1)NC(=O)[C@H](Cc1ccccc1)NC(=O)[C@H](N)Cc1ccccc1)C(=O)N[C@@H](Cc1ccccc1)C(=O)N[C@H](Cc1cccc2ccccc12)C(N)=O` [BIM 23056] (H-[dF]FY[dW]KVF[d1Nal]-NH2), for which the Ki is greater than 10000 nM in test [1], 1000 nM in test [2] and 0.02 nM in test [3].

For the compound `C[C@@H](OCc1ccccc1)[C@@H]1NC(=O)[C@H](CCCCN)NC(=O)[C@@H](Cc2c[nH]c3ccccc23)NC(=O)[C@H](Cc2ccccc2)NC(=O)CCCCCCCNC1=O` [c[Aoc-Phe-D-Trp-Lys-Thr(Bzl)]] (cyclo([Aoc]F[dW]KT(Bn))), the inhibition constant (Ki) came to 1000 nM in test [1], 700 nM in test [2] and 101 nM in test [3].

`CC(C)[C@H](NC(=O)[C@H](CCCCN)NC(=O)[C@@H](Cc1c[nH]c2ccccc12)NC(=O)[C@H](Cc1ccc(O)cc1)NC(=O)[C@H](C)NC(=O)[C@H](N)Cc1ccc2ccccc2c1)C(=O)N[C@@H](C)C(=O)N[C@H](C(N)=O)[C@@H](C)O` [D-Nal-Ala-Tyr-D-Trp-Lys-Val-Ala-Thr-NH2] (H-[d2Nal]AY[dW]KVAT-NH2): the Ki in test [1] came to 86 nM; in test [2] it was 1000 nM; in test [3], 10 nM.

`C[C@@H](O)[C@@H]1NC(=O)[C@H](CCCCN)NC(=O)[C@@H](Cc2c[nH]c3ccccc23)NC(=O)[C@H](Cc2ccccc2)NC(=O)[C@@H]2CCCN2C(=O)[C@H](Cc2ccccc2)NC1=O` (cyclo(PF[dW]KTF)): the Ki is 8.6 nM in test [1], 1000 nM in test [2] and 108 nM in test [3].

With `C[C@@H](O)[C@@H]1NC(=O)[C@H](CCCCN)NC(=O)[C@@H](Cc2c[nH]c3ccccc23)NC(=O)[C@H](Cc2ccccc2)NC(=O)CCCCCCNC1=O` [c[Aha-Phe-D-Trp-Lys-Thr]] (cyclo([Ahp]F[dW]KT)), the Ki in test [1], in test [2] and in test [3] was 1000 nM in each case.

With `NCCCCC1NC(=O)C(Cc2c[nH]c3ccccc23)NC(=O)C(Cc2ccc(O)cc2)NC(=O)C(NC(=O)C(N)Cc2ccccc2)CSSCC(C(=O)NCc2cccc3ccccc23)NC(=O)C(CO)NC1=O` (stereo not drawn) [NC4-28B] (H-FCYWKSC-{NH(1-naphthylmethyl)}; disulfide 2-7; configuration not given here), the figures for the Ki in test [1], in test [2] and in test [3] were 0.002 nM, 1000 nM and 112 nM, respectively.
